Here are results for twelve compounds from patent US10174000B2, “Bicyclic-fused heteroaryl or aryl compounds as IRAK4 modulators” (PFIZER INC., priority 2015, dated 2019).

What is called pIC50 is the negative decadic logarithm of the IC50, by convention in mol/L.

The target of experiment [1] is human IRAK4 FL (Full Length), phosphorylated (Homo sapiens (Human), UniProt Q9NWZ3). Put plainly: IRAK4 Enzymatic DELFIA Assay, Protocol A. In kind it is biochemical. The settings on record: 600 μM ATP (KM); full-length phosphorylated recombinant human IRAK4. The method, then: IRAK4 Enzymatic DELFIA Assay, Protocol A.
Sequence of human IRAK4 FL (Full Length), phosphorylated (Q9NWZ3 whole entry): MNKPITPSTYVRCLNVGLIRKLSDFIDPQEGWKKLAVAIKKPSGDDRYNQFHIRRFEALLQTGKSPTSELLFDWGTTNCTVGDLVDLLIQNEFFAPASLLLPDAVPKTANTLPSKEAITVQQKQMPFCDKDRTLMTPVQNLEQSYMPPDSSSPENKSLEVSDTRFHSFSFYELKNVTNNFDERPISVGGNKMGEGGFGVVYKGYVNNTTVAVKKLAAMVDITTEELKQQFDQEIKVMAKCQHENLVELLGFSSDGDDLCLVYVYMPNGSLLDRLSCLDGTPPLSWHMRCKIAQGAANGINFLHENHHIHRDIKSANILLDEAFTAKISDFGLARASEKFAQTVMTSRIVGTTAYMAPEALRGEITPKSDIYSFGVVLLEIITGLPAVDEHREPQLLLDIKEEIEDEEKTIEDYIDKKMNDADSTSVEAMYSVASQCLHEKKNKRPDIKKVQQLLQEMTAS
This is an in vitro assay to measure IRAK4 enzymatic activity utilizing the DELFIA (Dissociation-Enhanced Lanthanide Fluorescent Immunoassay, Perkin-Elmer) platform, with the human IRAK4 FL (Full Length) construct to characterize IRAK4 inhibitor and control compounds at 600 μM ATP (KM). The final amount of enzyme in the assay is 0.1 nM IRAK4 FL, final concentration of substrate is 50 nM, and final concentration of DMSO is 2.5%.
The test compound was solubilized in DMSO to a stock concentration of 30 mM. The dose response plates were prepared with a 4 mM primary compound concentration (40-fold multiple of the final in-assay concentration), and diluted in DMSO in a four-fold series for a total of 11 data points. 1 μL of the compound dilution plate is spotted into ultra-clear polypropylene, 384-well, U-bottom plates (Corning Life Sciences).
To begin the assay, 19 μL of reaction mixture containing 20 mM HEPES pH=7.5, 5 mM MgCl2, 0.0025% Brij-35, 600 μM ATP, 0.21 nM Full-length phosphorylated recombinant human IRAK4 (GenBank ID AF445802) are aliquoted into the polypropylene, 384-well, U-bottom plates containing 1 μL of test compound, mixed briefly and incubated for 20 minutes at room temperature (RT). Then, 20 μL of 20 mM HEPES pH=7.5, 5 mM MgCl2, 0.0025% Brij-35, 600 μM ATP, and 100 nM ERM-biotinylated peptide (AGAGRDKYKTLRQIR) is added to start the reaction. The reaction is incubated for 60 minutes at RT and stopped by the addition of 20 μL 0.3M EDTA.
(§1) 50 μL of the reaction mixture was transferred to a streptavidin-coated detection plate (DELFIA streptavidin coated plates, 384-well, white plates, Perkin-Elmer Life Sciences) and incubated for 30 minutes at RT. The plates were washed 4× with 75 μL per well of PBS containing 0.05% Tween-20. Plates were then incubated with 50 μL per well of antibody cocktail of Anti-pERM antibody at 0.125 μg/mL (Cell Signaling Technology), plus Anti-Rabbit IgG EuN1 at 0.25 μg/ml (Perkin-Elmer Life Sciences) in a solution of 10 mM MOPS pH=7.5, 150 mM NaCl, 0.05% Tween-20, 0.02% NaN3, 1% BSA, 0.1% Gelatin for 45 minutes. The plates were then washed as before. 50 μL per well of DELFIA Enhancement Solution (Perkin-Elmer Life Sciences) was added to the plate and incubated for 15 minutes at RT prior to being read on an Envision Model 2104 multi-label reader using a 340 nm excitation wavelength and a […] emission wavelength for detection.

The target of experiment [2] is inactive, unphosphorylated (0-phos), human IRAK4 FL (Full Length) (Homo sapiens (Human), UniProt Q9NWZ3). Put plainly: IRAK4 Enzymatic DELFIA Assay, Protocol B. The settings on record: 600 μM ATP (KM), full-length recombinant human IRAK4. It counts as biochemical. The method, then: IRAK4 Enzymatic DELFIA Assay, Protocol B.
Sequence of inactive, unphosphorylated (0-phos), human IRAK4 FL (Full Length) (Q9NWZ3 whole entry): as above
The test compound is solubilized in DMSO to a stock concentration of 30 mM. The dose response plates were prepared with a 4 mM primary compound concentration, serialized in DMSO and spotted (1 μL) into 384-well polypropylene plates as before.
20 uL of 20 mM HEPES pH=7.5, 5 mM MgCl2, 0.0025% Brij-35, 600 μM ATP, and 100 nM ERM-biotinylated peptide (AGAGRDKYKTLRQIR) was added to start the reaction, which was run for 90 minutes at RT and stopped by the addition of 20 μL 0.3M EDTA.
as §1

pIC50: −log10 of the molar value. Bounds are passed on as bounds.

Take `CC(C)Oc1cc2c(OC[C@@H]3NC(=O)[C@H](F)C34CC4)nccc2cc1C(N)=O` [Example 18, 1-(((4R,7R)-7-fluoro-6-oxo-5-azaspiro[2.4]heptan-4-yl)methoxy)-7-isopropoxyisoquinoline-6-carboxamide]: the pIC50 in experiment [1] was 4.80; in experiment [2], 6.06.

For `CC(C)Oc1cc2c(OC[C@H]3NC(=O)[C@@H](F)C34CC4)nccc2cc1C(N)=O` [Example 19, 1-(((4S,7S)-7-fluoro-6-oxo-5-azaspiro[2.4]heptan-4-yl)methoxy)-7-isopropoxyisoquinoline-6-carboxamide], the pIC50 was 8.27 in experiment [1] and 9.22 in experiment [2].

For the compound `COc1cc2c(OC[C@H]3NC(=O)[C@H](F)C34CC4)nccc2cc1C(N)=O` [Example 21, 1-(((4S,7R)-7-fluoro-6-oxo-5-azaspiro[2.4]heptan-4-yl)methoxy)-7-methoxyisoquinoline-6-carboxamide], the figures for the pIC50 in experiment [1] and in experiment [2] were 7.41 and 7.68, respectively.

`COc1cc2c(OC[C@@H]3NC(=O)[C@@H](F)C34CC4)nccc2cc1C(N)=O` [Example 22, 1-(((4R,7S)-7-fluoro-6-oxo-5-azaspiro[2.4]heptan-4-yl)methoxy)-7-methoxyisoquinoline-6-carboxamide]: the pIC50 in experiment [1] was 4.59; in experiment [2], 5.77.

For the compound `COc1cc2c(OC[C@@H]3NC(=O)[C@H](F)C34CC4)nccc2cc1C(N)=O` [Example 23, 1-(((4R,7R)-7-fluoro-6-oxo-5-azaspiro[2.4]heptan-4-yl)methoxy)-7-methoxyisoquinoline-6-carboxamide], the pIC50 in experiment [1] was 5.84; in experiment [2], 6.96.

As to `COc1cc2c(OC[C@H]3NC(=O)[C@@H](F)C34CC4)nccc2cc1C(N)=O` [Example 24, 1-(((4S,7S)-7-fluoro-6-oxo-5-azaspiro[2.4]heptan-4-yl)methoxy)-7-methoxyisoquinoline-6-carboxamide], the pIC50 is 8.28 in experiment [1] and 9.10 in experiment [2].

With `CC[C@@H]1CC(=O)N[C@@H]1COc1cncc2cc(C(N)=O)c(OC)cc12` [Example 25, 4-(((2S,3R)-3-ethyl-5-oxopyrrolidin-2-yl)methoxy)-6-methoxyisoquinoline-7-carboxamide], the figures for the negative logarithm of the IC50 (pIC50) in experiment [1] and in experiment [2] were 7.33 and 8.57, respectively.

Take `CC[C@@H]1[C@H](F)C(=O)N[C@@H]1COc1cncc2cc(C(N)=O)c(OC)cc12` [Example 26, 4-(((2S,3S,4S)-3-ethyl-4-fluoro-5-oxopyrrolidin-2-yl)methoxy)-6-methoxyisoquinoline-7-carboxamide]: the results for the pIC50 in experiment [1] and in experiment [2] were 8.11 and 9.52, respectively.

In the case of `CC[C@@H]1[C@H](F)C(=O)N[C@@H]1COc1cccc2cc(C(N)=O)c(OC)cc12` [Example 27, 5-(((2S,3S,4S)-3-ethyl-4-fluoro-5-oxopyrrolidin-2-yl)methoxy)-3-methoxy-2-naphthamide], the figures for the pIC50 in experiment [1] and in experiment [2] were 9.10 and 10.00, respectively.

`COc1cc2c(OC[C@]34C[C@H]3CC(=O)N4)nccc2cc1C(N)=O` [Example 30, 7-methoxy-1-{[(1S,5S)-3-oxo-2-azabicyclo[3.1.0]hex-1-yl]methoxy}isoquinoline-6-carboxamide]: the pIC50 is 5.37 in experiment [1] and 6.82 in experiment [2].

Turning to `COc1cc2c(OC[C@@]34C[C@@H]3CC(=O)N4)nccc2cc1C(N)=O` [Example 31, 7-methoxy-1-{[(1R,5R)-3-oxo-2-azabicyclo[3.1.0]hex-1-yl]methoxy}isoquinoline-6-carboxamide], the pIC50 was below 4.00 in experiment [1] and 5.92 in experiment [2].

As for `CC[C@@H]1[C@H](F)C(=O)N[C@@H]1COc1nccc2nc(C(N)=O)c(OC)cc12` [Example 32, 5-{[(2S,3S,4S)-3-ethyl-4-fluoro-5-oxopyrrolidin-2-yl]methoxy}-3-methoxy-1,6-naphthyridine-2-carboxamide], the figures for the pIC50 in experiment [1] and in experiment [2] were 7.57 and 8.35, respectively.
